Laboratory results published in article PMC9264488, “Potentiation of endocannabinoids and other lipid amides prevents hyperalgesia and inflammation in a pre-clinical model of migraine” (The Journal of Headache and Pain, 2022).
Where two headings read alike, the source gives them in different places.

Tests used:
[1] = target: T1, fatty acid amide hydrolase (r-FAAH) (Rattus norvegicus, UniProt P97612); test: biochemical
[2] = target: T1, fatty acid amide hydrolase (r-FAAH)

T1 sequence (P97612 whole entry): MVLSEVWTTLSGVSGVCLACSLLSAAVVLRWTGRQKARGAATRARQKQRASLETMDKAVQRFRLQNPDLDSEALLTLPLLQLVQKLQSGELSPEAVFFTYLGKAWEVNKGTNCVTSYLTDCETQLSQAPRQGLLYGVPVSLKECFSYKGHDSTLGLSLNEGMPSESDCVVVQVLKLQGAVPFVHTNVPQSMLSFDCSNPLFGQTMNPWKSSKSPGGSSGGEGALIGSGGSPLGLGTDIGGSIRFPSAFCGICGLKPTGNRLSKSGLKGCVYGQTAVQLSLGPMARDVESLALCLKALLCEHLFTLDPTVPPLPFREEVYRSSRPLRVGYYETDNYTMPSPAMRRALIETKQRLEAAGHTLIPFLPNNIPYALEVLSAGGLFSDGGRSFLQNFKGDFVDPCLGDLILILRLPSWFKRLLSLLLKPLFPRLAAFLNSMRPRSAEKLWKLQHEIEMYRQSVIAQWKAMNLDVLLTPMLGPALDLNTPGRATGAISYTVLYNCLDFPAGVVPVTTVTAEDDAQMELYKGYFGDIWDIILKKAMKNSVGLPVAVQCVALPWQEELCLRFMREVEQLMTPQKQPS

| Compound | IC50 [1] | IC50 [2] |
| --- | --- | --- |
| NC(=O)c1cccc(-c2cc(OC(=O)NC3CCCCC3)ccc2OC(F)F)c1 [ARN14280, [3-(3-carbamoylphenyl)-4-(difluoromethoxy)phenyl] N-cyclohexylcarbamate] | 1.5 ± 0.3 nM | – |
| CNC(=O)c1cccc(-c2cc(OC(=O)NC3CCCCC3)ccc2F)c1 [ARN14633, [4-fluoro-3-[3-(methylcarbamoyl)phenyl]phenyl] N-cyclohexylcarbamate] | – | 1.4 ± 0.3 nM |
